Experiment [1] concerns the target T1, Protein deacetylase HDAC6 (Homo sapiens, UniProt Q9UBN7).
T1 sequence (Q9UBN7 whole entry): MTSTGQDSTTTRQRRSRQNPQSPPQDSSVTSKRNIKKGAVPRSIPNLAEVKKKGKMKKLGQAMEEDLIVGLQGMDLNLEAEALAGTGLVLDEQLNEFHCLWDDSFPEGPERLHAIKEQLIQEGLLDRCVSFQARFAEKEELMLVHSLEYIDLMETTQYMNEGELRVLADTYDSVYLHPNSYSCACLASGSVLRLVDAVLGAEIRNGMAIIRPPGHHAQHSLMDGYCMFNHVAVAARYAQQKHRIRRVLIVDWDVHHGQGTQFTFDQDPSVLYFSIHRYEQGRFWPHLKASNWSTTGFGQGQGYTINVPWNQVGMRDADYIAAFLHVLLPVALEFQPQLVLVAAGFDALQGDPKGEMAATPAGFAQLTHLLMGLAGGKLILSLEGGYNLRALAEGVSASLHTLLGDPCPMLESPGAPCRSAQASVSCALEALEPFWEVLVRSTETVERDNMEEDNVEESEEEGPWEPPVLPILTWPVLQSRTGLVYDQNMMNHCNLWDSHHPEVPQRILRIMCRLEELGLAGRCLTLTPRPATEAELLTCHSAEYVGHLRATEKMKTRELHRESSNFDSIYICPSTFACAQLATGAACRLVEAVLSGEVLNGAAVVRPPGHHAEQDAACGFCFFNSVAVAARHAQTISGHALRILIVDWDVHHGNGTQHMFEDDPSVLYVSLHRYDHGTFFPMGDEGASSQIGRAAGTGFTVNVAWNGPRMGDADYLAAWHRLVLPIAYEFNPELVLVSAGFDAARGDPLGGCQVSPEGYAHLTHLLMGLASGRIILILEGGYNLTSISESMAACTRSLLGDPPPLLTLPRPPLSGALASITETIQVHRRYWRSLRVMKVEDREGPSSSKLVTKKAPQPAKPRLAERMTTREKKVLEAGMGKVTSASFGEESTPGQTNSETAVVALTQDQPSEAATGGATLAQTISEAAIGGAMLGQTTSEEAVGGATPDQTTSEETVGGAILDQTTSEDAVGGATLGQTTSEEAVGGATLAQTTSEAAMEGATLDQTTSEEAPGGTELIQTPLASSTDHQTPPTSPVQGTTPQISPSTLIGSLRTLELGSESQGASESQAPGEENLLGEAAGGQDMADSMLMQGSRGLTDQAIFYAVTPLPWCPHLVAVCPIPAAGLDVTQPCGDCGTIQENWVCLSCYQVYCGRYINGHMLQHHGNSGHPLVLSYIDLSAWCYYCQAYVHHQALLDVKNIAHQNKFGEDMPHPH
The experiment can be described thus: Inhibition of human recombinant HDAC6 expressed in High5 insect cells using Boc-Lys (-acetyl)-AM) as substrate after 24 hrs by fluorescence assay.

Experiment [2] deals with Bel-7402. Kind of experiment: Cell cycle arrest in human Bel7402 cells assessed as accumulation at G2/M phase at 1 uM relative to control. It is filed as functional, cell-based.
The test system of experiment [3] is Bel-7402. The experiment can be described thus: Cell cycle arrest in human Bel7402 cells assessed as accumulation at G2/M phase at 10 uM relative to control. It counts as functional, cell-based.
Experiment [4] concerns A-431. Kind of experiment: Cytotoxicity against human A431 cells after 72 hrs by MTT assay. It is filed as functional, cell-based. As to conditions: A-431, 72 h. On the technique in general: Tetrazolium dyes change colour on reduction, which living cells bring about.
Experiment [5] concerns PC-3. Kind of experiment: Cytotoxicity against human PC3 cells after 72 hrs by MTT assay. It counts as functional, cell-based. The following applies: PC-3, 72 h.
The test system of experiment [6] is MCF7. Kind of experiment: Cytotoxicity against human MCF7 cells after 72 hrs by MTT assay. It counts as functional, cell-based. The following applies: MCF7, 72 h.
Experiment [7] concerns HCT-116. The experiment can be described thus: Cytotoxicity against human HCT116 cells after 72 hrs by MTT assay. It counts as functional, cell-based. As to conditions: HCT-116, 72 h.
The subject of experiment [8] is A549. The experiment can be described thus: Cytotoxicity against human A549 cells after 72 hrs by MTT assay. It is filed as functional, cell-based. The following applies: A549, 72 h.
The target in experiment [9] is Histone deacetylase 1 (Homo sapiens, UniProt Q13547). The experiment can be described thus: Inhibition of human recombinant HDAC1 expressed in High5 insect cells using Ac-Lys-Tyr-Lys(-acetyl)-AMC as substrate after 24 hrs by fluorescence assay.
In experiment [10] the target is Histone deacetylase 3 (Homo sapiens, UniProt O15379). Kind of experiment: Inhibition of human recombinant HDAC3 expressed in High5 insect cells using Ac-Lys-Tyr-Lys(-acetyl)-AMC as substrate after 24 hrs by fluorescence assay.

One may read the IC50 as the concentration that gives 50% inhibition.

Structures are written as SMILES. Active and inactive are the calls of the source. The rule behind the calls is not given here.

Chain of Histone deacetylase 1 (Q13547 whole entry): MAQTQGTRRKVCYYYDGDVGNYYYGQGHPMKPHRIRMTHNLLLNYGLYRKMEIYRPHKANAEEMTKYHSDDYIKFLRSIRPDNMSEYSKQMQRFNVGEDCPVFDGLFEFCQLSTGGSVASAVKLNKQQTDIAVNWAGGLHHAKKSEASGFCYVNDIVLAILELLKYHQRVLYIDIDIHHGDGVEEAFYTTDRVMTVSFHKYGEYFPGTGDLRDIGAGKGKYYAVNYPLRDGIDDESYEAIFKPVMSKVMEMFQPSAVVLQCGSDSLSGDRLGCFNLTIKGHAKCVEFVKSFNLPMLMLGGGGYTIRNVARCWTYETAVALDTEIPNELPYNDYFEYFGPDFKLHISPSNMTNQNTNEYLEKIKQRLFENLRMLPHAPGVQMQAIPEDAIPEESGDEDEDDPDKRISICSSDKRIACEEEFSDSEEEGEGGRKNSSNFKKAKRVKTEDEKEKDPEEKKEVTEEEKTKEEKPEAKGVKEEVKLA
Chain of Histone deacetylase 3 (O15379 whole entry): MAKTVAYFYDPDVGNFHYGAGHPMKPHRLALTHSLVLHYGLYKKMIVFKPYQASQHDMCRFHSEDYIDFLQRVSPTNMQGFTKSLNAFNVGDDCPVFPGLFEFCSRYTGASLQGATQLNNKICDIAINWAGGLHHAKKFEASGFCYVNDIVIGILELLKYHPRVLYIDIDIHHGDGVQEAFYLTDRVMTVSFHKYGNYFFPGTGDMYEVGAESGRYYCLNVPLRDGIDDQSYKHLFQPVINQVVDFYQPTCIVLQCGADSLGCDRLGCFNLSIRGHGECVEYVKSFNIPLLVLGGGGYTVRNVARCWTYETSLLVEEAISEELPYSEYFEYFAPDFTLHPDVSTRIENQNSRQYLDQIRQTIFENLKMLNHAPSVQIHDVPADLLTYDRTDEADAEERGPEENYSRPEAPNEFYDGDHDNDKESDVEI

As to `COc1cc2c(c(OC)c1OC)-c1ccc(OC)c(=O)cc1[C@@H](NC(=O)CCCCCCC(=O)NO)CC2`, the IC50 in experiment [1] worked out at 9830 nM; in experiment [4] it was 3430 nM; in experiment [5] it was 3380 nM; in experiment [6] it was 1380 nM; in [7] it was 2600 nM; in [8] it was 7260 nM. Also, the outcome in experiment [2] and in experiment [3] was Active.
For the compound `COc1cc2c(c(OC)c1OC)-c1ccc(OC)c(=O)cc1[C@@H](NC(C)=O)CC2` [COLCHICINE], the IC50 in experiment [4] stood at 19 nM; in [5], 74 nM; in [6], 17 nM; in experiment [7] it was 37 nM; in experiment [8], 23 nM.
For the compound `COc1cc2c(c(OC)c1OC)-c1ccc(OC)c(=O)cc1[C@@H](NC(=O)CCCCCC(=O)NO)CC2`, the 50% inhibitory concentration (IC50) is 760 nM in experiment [1]; 1600 nM in experiment [9]; 1230 nM in [4]; 1030 nM in [10]; 2940 nM in [5]; 948 nM in experiment [6]. For the same compound, the IC50 was 1380 nM in [7] and 7290 nM in experiment [8]. The outcome in [2] and in experiment [3] was Active.
`COc1cc2c(c(OC)c1OC)-c1ccc(OC)c(=O)cc1[C@@H](NC(=O)CCCCC(=O)NO)CC2`: the IC50 in experiment [1] is 440 nM; in experiment [9], 720 nM; in [4], 1030 nM; in experiment [10], 830 nM; in experiment [5], 5400 nM; in [6], 928 nM. Further, the IC50 in experiment [7] was determined as 2080 nM; in [8] it was 4930 nM. Moreover, the outcome in experiment [2] and in experiment [3] was Active.
With `COc1cc2c(c(OC)c1OC)-c1ccc(OC)c(=O)cc1[C@@H](NC(=O)CCC(=O)NO)CC2`, the IC50 in experiment [1] worked out at 3430 nM; in [9], 1330 nM; in [4] it was 242 nM; in [10] it was 1360 nM; in experiment [5], 813 nM; in experiment [6], 825 nM. For the same compound, the IC50 was 903 nM in experiment [7] and 4670 nM in experiment [8]. Besides, the outcome in experiment [2] and in experiment [3] was Active.
Consider `COc1cc2c(c(OC)c1OC)-c1ccc(OC)c(=O)cc1[C@@H](NC(=O)CCCC(=O)NO)CC2`, for which the IC50 in experiment [1] turned out to be 8240 nM; in [9], 9580 nM; in [4] it was 1830 nM; in [10], 8360 nM; in [5] it was 2340 nM; in [6], 876 nM. Moreover, the IC50 in experiment [7] was determined as 2740 nM; in experiment [8], 7370 nM. The result in [2] and in [3] was Active.

These data come from ChEMBL document CHEMBL2385041, “The discovery of colchicine-SAHA hybrids as a new class of antitumor agents” (Bioorg Med Chem, 2013).
